Drawing on patent US20260085082A1, “KDM1A INHIBITORS FOR THE TREATMENT OF DISEASE” (Imago Biosciences, Inc., priority 2022, published 2026), this text covers IC50 for 21 compounds.

pIC50: −log10 of the molar value. Where two headings read alike, the source gives them in different places. Bounds are passed on as bounds.

One experiment concerns MV4;11 cells. Kind of experiment: Cell Titer-Glo Luminescent Cell Viability Assay, cell growth inhibition against MV4;11 cells. The class given is cell-based. To be noted: Homo sapiens. The protocol: Cell growth inhibition against MV4;11 cells was confirmed for the synthetic compounds. The Cell Titer-Glo Luminescent Cell Viability Assay (Promega, USA) was used to determine the number of viable cells in culture based on quantitation of the ATP present, which signals the presence of metabolically active cells. This assay was run in a 96-well plate format arrayed in a 10-point dose curve, ranging from 0 to 50 μM with 4-fold dilutions for each compound. Cells are seeded on Day 0 at 3750 cells per well. At Day 5, a portion of each well is assayed for viability according to the Cell Titer-Glo protocol. Briefly, cells/plates were centrifuged at 1100×g for 5 minutes. 100 μL of media was removed from each well and replaced with 100 μL of CellTiter-Glo. The plates were shaken at room temperature for 10 minutes and measured on a luminescence plate reader. Another portion of each well from the Day 5 plate is used to seed a new 96 plate containing fresh compound and media set up in the equivalent 10-point dose curve array in order to continue the cell growth inhibition assay for another 5 days. A final timepoint is collected at Day 10 using the Cell Titer-Glo protocol. Luminescence was detected on an EnVision® Multilabel Plate Reader (Perkin Elmer, Waltham, Mass.) and IC50 determination was made using Graph Pad Prism software.

For a further experiment, the target named is LSD1 (Homo sapiens, UniProt O60341). The experiment in a line: LSD1 10-dose IC50 fluorescence coupling enzyme assay (HRP/Amplex Red, resorufin). Type of experiment: biochemical. To be noted: 10 M histone H3(1-21)K4me2 peptide substrate; 3-fold serial dilution in duplicate starting at 100 μM. As for the experimental part:
Compounds were tested in a 10-dose IC50 mode fluorescence coupling enzyme assay with 3-fold serial dilution in duplicate starting at 100 μM. The production of FAD-dependent H2O2 as a result of demethylase activity of LSD1 on […] histone H3(1-21)K4me2 peptide substrate was measured by coupling with HRP and Amplex Red to yield resorufin (fluorescence measured at Ex/Em=535/590 nm on EnVision, Perkin Elmer).

Setting [1] is: MV4-11, 120 h, MV4;11 cells, Day 5, 10-point dose curve 0 to 50 μM, read-out: Cell Titer Glo IC50 (5 d).
[2] abbreviates: MV4-11, MV4;11 cells, Day 10 (re-seeded at Day 5 with fresh compound), 10-point dose curve 0 to 50 μM, read-out: Cell Titer Glo IC50 (10 d).

One may read the pIC50 as the negative decadic logarithm of the IC50, by convention in mol/L. Take `COc1ccc(-n2nc(NC(=O)[C@@H]3CCNC3)cc2-c2ccc(C#N)c(F)c2)cc1` [Example 94, (R)-N-(5-(4-cyano-3-fluorophenyl)-1-(4-methoxyphenyl)-1H-pyrazol-3-yl)pyrrolidine-3-carboxamide 2,2,2-trifluoroacetate]: the pIC50 was 5.00 to 6.00 with MV4;11 cells (setting [1]) and above 6.30 against LSD1.

Regarding `COc1ccc(-n2nc(C(=O)N3CCC[C@@H](N)C3)cc2-c2ccc(C#N)c(F)c2)cc1F` [Example 36, (R)-4-(3-(3-aminopiperidine-1-carbonyl)-1-(3-fluoro-4-methoxyphenyl)-1H-pyrazol-5-yl)-2-fluorobenzonitrile], the pIC50 in the experiment on MV4;11 cells (setting [1]) and against LSD1 was above 6.30 each time.

In the case of `Cc1cc(CCn2nc(C(=O)N3CCC[C@@H](N)C3)cc2-c2ccc(C#N)c(F)c2)on1` [Example 38, (R)-4-(3-(3-aminopiperidine-1-carbonyl)-1-(2-(3-methylisoxazol-5-yl)ethyl)-1H-pyrazol-5-yl)-2-fluorobenzonitrile], the pIC50 in the experiment with MV4;11 cells (setting [1]) was 5.00 to 6.00; at LSD1, below 5.00.

Take `COc1ccc(-n2nc(C(=O)NC3CCNCC3)cc2-c2ccc(C#N)c(F)c2)cc1` [Example 24, 5-(4-Cyano-3-fluorophenyl)-1-(4-methoxyphenyl)-N-(piperidin-4-yl)-1H-pyrazole-3-carboxamide]: the negative logarithm of the IC50 (pIC50) in the experiment with MV4;11 cells (setting [1]) and at LSD1 was 5.00 to 6.00 in each case.

Turning to `COc1ccc(-n2nc(C(=O)N3CC(N)C3)cc2-c2ccc(C#N)c(F)c2)cc1` [Example 31, 4-(3-(3-Aminoazetidine-1-carbonyl)-1-(4-methoxyphenyl)-1H-pyrazol-5-yl)-2-fluorobenzonitrile 2,2,2-trifluoroacetate], the pIC50 in the experiment with MV4;11 cells (setting [1]) and against LSD1 was below 5.00 each time.

As for `Cc1ccc(-n2nc(-c3ccc(C#N)c(F)c3)cc2C(=O)N2CCCC(N)C2)cc1` (stereo not shown) [Example 14, 4-(5-(3-Aminopiperidine-1-carbonyl)-1-(p-tolyl)-1H-pyrazol-3-yl)-2-fluorobenzonitrile], the pIC50 with MV4;11 cells (setting [1]) is 5.00 to 6.00; on LSD1, above 6.30.

Regarding `COc1ccc(-n2cc(C(=O)N3CCCC(N)C3)c(-c3ccc(C#N)cc3)n2)cc1` (stereo not shown) [Example 87, 4-(4-(3-aminopiperidine-1-carbonyl)-1-(4-methoxyphenyl)-1H-pyrazol-3-yl)benzonitrile], the pIC50 in the experiment with MV4;11 cells (setting [1]) and against LSD1 was below 5.00 throughout.

For the compound `Cn1cc2cc(-n3nc(C(=O)N4CCCC(N)C4)cc3-c3ccc(C#N)c(F)c3)ccc2n1` (stereo not shown) [Example 40, 4-(3-(3-Aminopiperidine-1-carbonyl)-1-(2-methyl-2H-indazol-5-yl)-1H-pyrazol-5-yl)-2-fluorobenzonitrile], the pIC50 in the experiment on MV4;11 cells (setting [1]) and on LSD1 was above 6.30 throughout.

Take `Cc1ccc(-n2nc(C(=O)N3CCC[C@H](N)C3)cc2-c2ccc(C#N)c(F)c2)cc1` [Example 12, (S)-4-(3-(3-Aminopiperidine-1-carbonyl)-1-(p-tolyl)-1H-pyrazol-5-yl)-2-fluorobenzonitrile]: the pIC50 with MV4;11 cells (setting [1]), in the experiment with MV4;11 cells (setting [2]) and at LSD1 was above 6.30 throughout.

Take `CN1CCN(c2ccc(-n3nc(C(=O)N4CCC[C@@H](N)C4)cc3-c3ccc(C#N)c(F)c3)cc2)CC1=O` [Example 50, (R)-4-(3-(3-aminopiperidine-1-carbonyl)-1-(4-(4-methyl-3-oxopiperazin-1-yl)phenyl)-1H-pyrazol-5-yl)-2-fluorobenzonitrile]: the pIC50 in the experiment with MV4;11 cells (setting [2]) and at LSD1 was above 6.30 each time.

`Cc1ccc(-n2nc(C(=O)N3CCC(N)CC3)cc2-c2ccc(C#N)c(F)c2)cc1` [Example 9, 4-(3-(4-Aminopiperidine-1-carbonyl)-1-(p-tolyl)-1H-pyrazol-5-yl)-2-fluorobenzonitrile]: the pIC50 is 5.00 to 6.00 in the experiment with MV4;11 cells (setting [1]) and above 6.30 at LSD1.

On to `COc1ccc(Cn2nc(C(=O)N3CCC[C@H](N)C3)cc2-c2ccc(C#N)c(F)c2)cc1` [Example 34, (S)-4-(3-(3-aminopiperidine-1-carbonyl)-1-(4-methoxybenzyl)-1H-pyrazol-5-yl)-2-fluorobenzonitrile 2,2,2-trifluoroacetate], for which the pIC50 is 5.00 to 6.00 in the experiment with MV4;11 cells (setting [1]) and 6.00 to 6.30 on LSD1.

Turning to `COc1ccc(-n2nc(C(=O)N[C@@H]3CCC[C@@H](N)C3)cc2-c2ccc(C#N)c(F)c2)cc1` [Example 23, N-((1R,3R)-3-aminocyclohexyl)-5-(4-cyano-3-fluorophenyl)-1-(4-methoxyphenyl)-1H-pyrazole-3-carboxamide 2,2,2-trifluoroacetate], the pIC50 in the experiment on MV4;11 cells (setting [1]) and at LSD1 was 5.00 to 6.00 each time.

Turning to `Cn1cc2cc(-n3nc(C(=O)N4CCC[C@H](N)C4)cc3-c3ccc(C#N)c(F)c3)ccc2n1` [Example 44, (S)-4-(3-(3-aminopiperidine-1-carbonyl)-1-(2-methyl-2H-indazol-5-yl)-1H-pyrazol-5-yl)-2-fluorobenzonitrile 2,2,2-trifluoroacetate], the pIC50 with MV4;11 cells (setting [1]), with MV4;11 cells (setting [2]) and on LSD1 was above 6.30 each time.

As to `N#Cc1ccc(-c2cc(C(=O)N3CCC[C@H](N)C3)nn2-c2ccc(N3CCCC3)cc2)cc1F` [Example 61, (S)-4-(3-(3-aminopiperidine-1-carbonyl)-1-(4-(pyrrolidin-1-yl)phenyl)-1H-pyrazol-5-yl)-2-fluorobenzonitrile 2,2,2-trifluoroacetate], the pIC50 with MV4;11 cells (setting [1]), with MV4;11 cells (setting [2]) and at LSD1 was above 6.30 throughout.

On to `COc1ccc(-n2nc(C(=O)N3CCCC(N)C3)cc2-c2ccc(C#N)c(F)c2)cc1F` (stereo not shown) [Example 35, 4-(3-(3-Aminopiperidine-1-carbonyl)-1-(3-fluoro-4-methoxyphenyl)-1H-pyrazol-5-yl)-2-fluorobenzonitrile], for which the pIC50 in the experiment on MV4;11 cells (setting [1]) and against LSD1 was above 6.30 in each case.

`CN1CCN(c2ccc(-n3nc(C(=O)N4CCC[C@@H](N)C4)cc3-c3ccc(C#N)c(F)c3)c(F)c2)CC1` [Example 67, (R)-4-(3-(3-aminopiperidine-1-carbonyl)-1-(2-fluoro-4-(4-methylpiperazin-1-yl)phenyl)-1H-pyrazol-5-yl)-2-fluorobenzonitrile]: the pIC50 on LSD1 is above 6.30.

As for `CN1CCN(c2ccc(-n3nc(-c4ccc(C#N)c(F)c4)cc3C(=O)N3CCC[C@@H](N)C3)cc2F)CC1` [Example 80, (R)-4-(5-(3-aminopiperidine-1-carbonyl)-1-(3-fluoro-4-(4-methylpiperazin-1-yl)phenyl)-1H-pyrazol-3-yl)-2-fluorobenzonitrile 2,2,2-trifluoroacetate], the pIC50 against LSD1 was above 6.30.

On LSD1, `COc1cc(N2CCNC(=O)C2)ccc1-n1nc(C(=O)N2CCC[C@@H](N)C2)cc1-c1ccc(C#N)c(F)c1` [Example 51, (R)-4-(3-(3-aminopiperidine-1-carbonyl)-1-(2-methoxy-4-(3-oxopiperazin-1-yl)phenyl)-1H-pyrazol-5-yl)-2-fluorobenzonitrile] had a pIC50 above 6.30.

As for `COc1ccc(-n2nc(C(=O)N3CCC(NC(=N)N)CC3)cc2-c2ccc(C#N)c(F)c2)cc1` [Example 30, 1-(1-(5-(4-Cyano-3-fluorophenyl)-1-(4-methoxyphenyl)-1H-pyrazole-3-carbonyl)piperidin-4-yl)guanidine 2,2,2-trifluoroacetate], the pIC50 against LSD1 is 5.00 to 6.00.

Consider `N#Cc1ccc(-c2cc(C(=O)N3CCC[C@@H](N)C3)nn2-c2ccc(N3CCNC(=O)C3)cc2)cc1F` [Example 49, (R)-4-(3-(3-aminopiperidine-1-carbonyl)-1-(4-(3-oxopiperazin-1-yl)phenyl)-1H-pyrazol-5-yl)-2-fluorobenzonitrile], for which the pIC50 against LSD1 is above 6.30.
